Measured values taken from US11014961B2, “Self-labeling miniproteins and conjugates comprising them” (priority 2017, dated 2021).
Residues, ends and D or L forms follow the SMILES beside them. No end group written: not given here. *: point of attachment. X1 = O=C(CCCC[C@@H]1SC[C@@H]2NC(=O)N[C@@H]21)NCCCC[C@H](NC(=O)CCOCCOCCOCCOCCOCCOCCOCCOCCOCCOCCOCCOCCSc1c(F)c(F)c(Sc2c(F)c(F)c(*)c(F)c2F)c(F)c1F)C(=O)O

How the values were obtained:
proteinase K = biological target: T1, proteinase K (Parengyodontium album, UniProt P06873); test: Protease digestion with proteinase K (LC-MS fraction remaining); assay type: in vitro ADME; settings: 100 μM peptide; for protease stability in presence of CA (noncovalent): with 10×CA (1 mM CA)
T1 construct: purchased Amresco
T1 sequence (P06873 106-384): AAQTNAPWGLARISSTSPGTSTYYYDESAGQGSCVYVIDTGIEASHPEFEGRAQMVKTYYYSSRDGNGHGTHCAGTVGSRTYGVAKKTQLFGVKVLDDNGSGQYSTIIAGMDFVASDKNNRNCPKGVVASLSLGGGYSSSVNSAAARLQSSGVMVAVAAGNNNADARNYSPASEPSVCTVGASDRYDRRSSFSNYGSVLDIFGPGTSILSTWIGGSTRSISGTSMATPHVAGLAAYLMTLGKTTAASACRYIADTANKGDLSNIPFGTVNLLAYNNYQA
Protocol: Reactions were performed using 100 μM peptide with […] of proteinase K for general cleavage with the addition of 1 mM CA for C11A and C11S digestions. Reactions were quenched with 49.75% water, 49.75% ACN and 0.5% TFA at selection time point and analyzed by LCMS. TIC-based integrated peak areas were used to determine the amount of material in a given time point normalized to the starting amount. These normalized values there then concerted to fraction remaining and plotted as shown.

[1] = Second order rate constant of the reaction between miniprotein (MP) and capture agent (CA), LC-MS TIC peak integration; assay type: biochemical; settings: for Second order rate constant: 0.1 mM MP, 0.5 mM CA; for reactivity with the CA (in words) / fold increase of second order rate constant relative to MP01: standard reaction conditions; for Rate: Table 4, reaction rates of self-labeling miniprotein sequences
[2] = Thermal melting followed by circular dichroism at 222 nm; assay type: physicochemical; settings: CD at 222 nm
Protocol: All experiments were performed at room temperature (˜23.5° C.) using a Jasco J-1500 spectrometer at MIT's Biophysical Instrumentation Facility (BIF). General conditions used were 10 mM sodium phosphate buffer at pH 7.45 with 5 mM TCEP (if a cysteine was present) with 50 μM peptide. CD measurements with C11S and C11A versions of Gen4 (SEQ ID NOs: 138 and 137, respectively) used the same conditions, without TCEP but with varying amount of CA (50 μM up to 500 μM depending on the desired mole ratio). Temperature melt data was obtained using a 0.5° C./minute ramp with data collected at 222 nm. […] For CD of Gen 1 (MP01; SEQ ID NO: 13), Gen1 H19L (MP01-H19L; SEQ ID NO: 62), Gen1 3 ala (MP01-T8/D10/S14A; SEQ ID NO: 69), Gen2 (MP01-Gen2; SEQ ID NO: 71) and Gen3_1 (MP01-Gen3_1; Gen 2-A17E; SEQ ID NO: 116) in their labeled and nonlabeled states, data was obtained in 12.5 mM HEPES, 50 mM NaCl, 2.5 mM MgCl2 and 2.5 mM CaCl2 at pH 7.45 with 5 mM TCEP at 50 µM peptide with or without ˜55 μM CA that had reacted for ˜2 days at room temperature. The CA labeled versions were not purified post reaction and were analyze in their reaction mixture.
Lacking an apparent cysteine pKa modulation, the basis for Gen4's high reactivity again came into question. Both C11A (SEQ ID NO: 134) and C11S (SEQ ID NO: 135) variants were synthesized and assayed them for CA-mediated structural alteration via CD. […]

[3] = 5 mM TCEP, 1× selection buffer pH 7.4, RT, a: average of three MP concentrations, c: labeled 1-3 times, d: labeled 1-2 times
[4] = 5 mM TCEP, 1× selection buffer pH 7.4, RT

## CSCC[C@H](NC(=O)[C@H](CCCCN)NC(=O)[C@H](Cc1ccc(O)cc1)NC(=O)[C@H](CCCCN)NC(=O)[C@H](CCC(N)=O)NC(=O)[C@H](CC(N)=O)NC(=O)[C@@H](N)CCSC)C(=O)N[C@@H](C)C(=O)N[C@@H](CCCCN)C(=O)N[C@@H](C)C(=O)N[C@@H](CSc1c(F)c(F)c(Sc2c(F)c(F)c(SCCOCCOCCOCCOCCOCCOCCOCCOCCOCCOCCOCCOCCC(=O)N[C@@H](CCCCNC(=O)CCCC[C@@H]3SC[C@@H]4NC(=O)N[C@@H]43)C(=O)O)c(F)c2F)c(F)c1F)C(=O)N[C@@H](Cc1ccccc1)C(=O)N[C@@H](Cc1ccccc1)C(=O)N[C@@H](C)C(=O)N[C@@H](Cc1ccccc1)C(=O)N[C@@H](CC(C)C)C(=O)N[C@@H](CCC(=O)O)C(=O)N[C@@H](Cc1c[nH]cn1)C(=O)N[C@@H](CC(C)C)C(=O)N[C@@H](CCCCN)C(=O)N[C@@H](CCCCN)C(=O)N[C@@H](CCCNC(=N)N)C(=O)N[C@@H](CCCCN)C(=O)N[C@@H](CC(C)C)C(=O)N[C@@H](Cc1ccc(O)cc1)C(=O)N1CCC[C@H]1C(=O)N[C@@H](CCSC)C(=O)N[C@@H](CO)C(=O)NCC(N)=O [Gen4-CA] (H-MNQKYKMAKAC(X1)FFAFLEHLKKRKLYPMSG-NH2)
Proteinase K
  protease stability: significantly increased protease resistance

## KMTKDCFFSFL-NH2 [MP01-T, KMTKDCFFSFL]
[1]; [3]
  Second order rate constant: 0.06 M⁻¹ s⁻¹
[1]
  reactivity with the CA (in words): severely diminished activity

## MGHLHICMVWRVNTSGHILSVGHKSYSSHKTG-NH2 [MP13]
[1]
  Rate: 2.41 M⁻¹ s⁻¹

## MGIVHNATRFPKRCFYSFIATRQSKNSIRVSG-NH2 [MP06]
[1]; [3]
  Second order rate constant: 0.11 ± 0.01 M⁻¹ s⁻¹

## MHAKYKMAKACFFAFLAHLKKRKLYPMSG-NH2 [Gen 2-Q3A]
[1]
  reactivity with the CA (in words): no alteration

## MHHYCSKMKRRILMHYLFANTMAHRDLGTNG-NH2 [MP15]
[1]
  Rate: 10.09 M⁻¹ s⁻¹

## MHLRMIRYLNRRRHLCHVVEIRHGLFASREIG-NH2 [MP16]
[1]
  Rate: 0.19 M⁻¹ s⁻¹

## MHMHKTTSYRIRVLVGVDVYRMSHTCLTSSSG-NH2 [MP19]
[1]
  Rate: 0.21 M⁻¹ s⁻¹

## MHQKYKMAAACFFAFLAHLKKRKLYPMSG-NH2 [Gen 2-K9A]
[1]
  reactivity with the CA (in words): no alteration

## MHQKYKMAKACFFAFLAHHKKRKLYPMSG-NH2 [triple alanine variant]
[1]; [4]
  Second order rate constant: 1.82 M⁻¹ s⁻¹
[1]
  fold increase of second order rate constant relative to MP01: 6.3 fold

## MHQKYKMAKACFFAFLAHLAKRKLYPMSG-NH2 [Gen 2-K20A]
[1]
  reactivity with the CA (in words): no alteration

## MHQKYKMAKACFFAFLAHLKKRKLYPMSG-NH2 [MP01-Gen2]
[1]
  fold increase of second order rate constant relative to MP01: 32.2 fold

## MHQKYKMAKACFFAFLEHLKKRKLYPMSG-NH2 [Gen3_1]
[1]
  reactivity with the CA (in words): increased the rate of reaction

## MHQKYKMTKDCFFSFLAHLKKRKLYPMSG-NH2 [MP01-H19L]
[1]
  fold increase of second order rate constant relative to MP01: 7.5 fold

## MHQKYKMTKDCFFSFLAHVKKRKLYPMSG-NH2 [MP01-H19V]
[1]
  reactivity with the CA (in words): progressively improved rate constants

## MHQKYKMTKDSFFSFLAHHKKRKLYPMSG-NH2 [SEQ ID NO: 91]
[1]
  reactivity with the CA (in words): all reactivity was lost

## MHTSLRSRAKSHSRSFGKCASIYTRYLKMG-NH2 [MP20]
[1]
  Rate: 1.22 M⁻¹ s⁻¹

## MKTFSSDQRFSKKCYRIYFHKLRQRNHNTSVG-NH2 [MP07]
[1]; [3]
  Second order rate constant: 0.91 ± 0.14^a M^−1 s^−1

## MLFMRLTKKTMATKFCPFRRKRKHRERRALYG-NH2 [MP27]
[1]
  Rate: 0.61 M⁻¹ s⁻¹

## MNGHYPCYLITSVLVGATTSGVPVVVHLRVG-NH2 [MP17]
[1]
  Rate: 0.11 M⁻¹ s⁻¹

## MNQKYKMAKAAFFAFLEHLKKRKLYPMSG-NH2 [Gen4(C11A)]
Proteinase K
  protease stability in presence of CA (noncovalent): improved protease stability

## MNQKYKMAKACFFAFLAHLKKRKLYPMSG-NH2 [Gen3_2]
[1]
  reactivity with the CA (in words): increased the rate of reaction

## MNQKYKMAKACFFAFLEHLKKRKLYPMSG-NH2 [MP01-Gen4]
[1]
  reactivity relative to a random cysteine containing peptide: ~4×10^3 times
  second order rate constant relative to the initial MP01 scaffold: ~100 times
[1]; 2 μM ammonium sulfate (so in the source)
  reaction rate with ammonium sulfate: 3.9 M⁻¹ s⁻¹
[1]; 2 μM sodium chloride (so in the source)
  reaction rate with sodium chloride: 6.1 M⁻¹ s⁻¹
[1]; 2-3 M guanidinium chloride, pH 7.45
  reactivity under denaturant guanidinium chloride: near complete ablation of reactivity
[1]; trimethylamine N-oxide (TMAO) at 0.5 μM (so in the source)
  rate constant with TMAO: ~9.7 M⁻¹ s⁻¹
[1]; trimethylamine N-oxide (TMAO) at 1 μM (so in the source)
  rate constant with TMAO: ~7.5 M⁻¹ s⁻¹
[2]; 4-95° C.
  thermal melting behaviour (in words): broad, gradually increasing trend

## MNQKYKMAKASFFAFLEHLKKRKLYPMSG-NH2 [Gen4(C11S)]
Proteinase K
  protease stability in presence of CA (noncovalent): improved protease stability
[2]; 50 μM peptide with 10×CA (500 μM)
  thermal melting behaviour (in words) with CA: gradually increasing CD signal albeit with a shift to higher temperatures

## MNRIFHKRSTYQMVFGRCSDFTSTYHVLISYG-NH2 [MP25]
[1]
  Rate: 0.25 M⁻¹ s⁻¹

## MPNYGPLSPSQPSHGYTFWMVPIWDNSHNAAG-NH2 [MP02]
[1]; footnote b: construct with the full length C-terminal region (-SGSLGHHHHHHRL)
  Second order rate constant: No Reaction^b
[1]
  reactivity with the CA (in words): did not react

## MQHEDLCTWYGFCPSGNFTPRNLRGDSDG [MP08]
[1]; [4]
  Second order rate constant: 0.04 M⁻¹ s⁻¹
[1]; [3]
  Second order rate constant: 0.04^d M^−1 s^−1

## MQNSKHRPRRCLRLLPLLRGHLHRMFRERG-NH2 [MP21]
[1]
  Rate: 2.00 M⁻¹ s⁻¹

## MRHYHLTCFQGFRIFRRTVDSLEMEISLG-NH2 [MP18]
[1]
  Rate: 0.17 M⁻¹ s⁻¹

## MRPCARRDRTLWCPFDSPAWFLLSGFSCG [MP05]
[1]; [4]
  Second order rate constant: 0.93 ± 0.11 M⁻¹ s⁻¹
[1]; [3]
  Second order rate constant: 0.93 ± 0.11^c M^−1 s^−1

## MRRTPSTRARGRVFLLPTLRFFITLCNLNG-NH2 [MP24]
[1]
  Rate: 0.02 M⁻¹ s⁻¹

## MRSTHQRVRRPRNLCSFKHKWLIKFLKTLTG-NH2 [MP22]
[1]
  Rate: 4.94 M⁻¹ s⁻¹

## MRTPIKFAPRLSQPFCPFRKQHQLHLHPLIEG-NH2 [MP04]
[1]; [3]
  Second order rate constant: 0.24 ± 0.01 M⁻¹ s⁻¹

## MRYIYVLRLKSWCGGASARSSPRSCATKLLG [MP09]
[1]; [3]
  Second order rate constant: 0.52 ± 0.01^d M^−1 s^−1
[1]; standard conditions, en route to being labeled twice
  initial rate (biphasic kinetics): 0.52 M⁻¹ s⁻¹

## MSSGTHYGILNMVIRCHLVKNQTSQMVVLTTG-NH2 [MP14]
[1]
  Rate: 0.12 M⁻¹ s⁻¹

## MTATSSSTSRGCRPSTAQVVQRLRGLLLVVG-NH2 [MP26]
[1]
  Rate: 0.07 M⁻¹ s⁻¹

## MTSVTASLLMHFCPIRAHITNKPSFNPSG-NH2 [MP03]
[1]; [3]
  Second order rate constant: 0.04 M⁻¹ s⁻¹

## MVKLSGKERTTRNCFFSFLASRRTKKFNNLSG-NH2 [MP12]
[1]
  Rate: 0.23 M⁻¹ s⁻¹
